Measurements as given in patent US6958318B2, “Recombinant bacterial cells for delivery of PNP to tumor cells” (The UAB Research Foundation, priority 1993, dated 2005).
Where “and” joins values, the source holds several entries; their conditions need not be identical. Equal entries are not always repeated. Entries after “also recorded” stand apart in the source; their conditions may differ. Where two headings read alike, the source gives them in different places.

Assays:
E. coli PNP = E. coli PNP (Escherichia coli, UniProt P0ABP8); assay type: biochemical
human PNP = target: T1, human PNP (Homo sapiens, UniProt P00491); assay: Cleavage of purine analog nucleosides by human PNP (HPLC); assay type: biochemical; conditions: for Percent of substrate cleaved by Human PNP, 1 mM: substrate 1 mM
T1 sequence (P00491 1-289): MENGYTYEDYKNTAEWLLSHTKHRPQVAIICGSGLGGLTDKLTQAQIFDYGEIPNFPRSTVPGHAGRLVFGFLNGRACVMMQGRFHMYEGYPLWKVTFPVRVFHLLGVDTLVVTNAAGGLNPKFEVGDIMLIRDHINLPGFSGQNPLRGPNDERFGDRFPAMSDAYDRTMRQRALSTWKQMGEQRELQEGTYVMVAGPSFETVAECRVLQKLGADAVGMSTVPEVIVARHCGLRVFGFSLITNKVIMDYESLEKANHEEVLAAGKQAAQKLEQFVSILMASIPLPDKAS

D54-PNP tumors = assay: E. coli PNP-transduced D54 glioma tumors in nude mice; assay type: in vivo; conditions: previous studies
Method: Female athymic nude mice (nu/nu) were implanted sc with 2×10^7 cells of either D54 parental tumor cells (D54-wt) or D54 tumor cells that had been transduced with the E. coli PNP (D54-PNP). After the tumors had grown to approximately 150 mg, they were treated ip with either vehicle or 67 mg/kg of MeP-dR (IP) once a day for 3 days (days 6, 7 and 8 after implantation). The tumor sizes were measured twice a week after treatment.
A confirmation experiment was set up exactly as described above, except that animals were treated with two doses of MeP-dR (45 and 67 mg/kg) (FIGS. 10 and 11). The results of this experiment were similar (Table V). There were 8 of 10 complete regressions in mice bearing the D54-PNP tumors that were treated with 67 mg/kg of MeP-dR. In 4 mice the tumors subsequently returned and grew. There were still 4 of 10 tumor-free survivors 60 days after the treatment had stopped. […] There were 2 of 10 complete regressions and 3 partial responses. […] The delay in the time required to double twice due to treatment with MeP-dR was 5 to 6 days in the non-transduced tumors and greater than 24 days in transduced tumors. In this experiment, the growth rate of the D54-PNP tumors was considerably slower than it was in the first experiment. There was no change in the growth rate of the D54-wt tumors. The reason for the slow growth rate of the D54-PNP tumors in this experiment is not known. […] (In other words, if a tumor was too small to measure, it was not included in the average size). This means that the overall tumor regressions in the D54 PNP group are actually much more pronounced than they appear in FIGS. 8-11.

16/C-PNP tumors = assay: E. coli PNP-transduced 16/C tumors in B6C3F1 mice; assay type: in vivo
Method: (§1) Transduced 16/C cells were implanted in mice by subcutaneous injection of approximately 10^6 cells harvested from the cultures of stably transduced 16/C cells described above. The mice were examined visibly for tumor growth and those with developing tumors were maintained. To prepare mice for use in the in vivo experiments, the tumors were removed from mice with significant tumor growth and cut into 30-60 mg pieces. One 30-60 mg piece of the tumor was subcutaneously implanted into the subaxillary region of each female B6C3F1 mouse. The tumors were allowed to develop and mice with tumors of 100 mm^3 were used.
Six mice per group with established PNP-transduced 16/C tumors were treated with aqueous control solution, MeP-dR or F-ara AMP, as above. […] (Table III, 16/C-PNP treatment.)

[1] = test system: wild type murine breast carcinoma cells (16/C cell line); assay: Wild-type 16/C tumors in nude mice; assay type: in vivo; conditions: FIG. 6
Method: For studies conducted with nu/nu mice, cells obtained from stable cultures of transduced cell lines were injected subcutaneously into the right or left flank of the mice. Mice with visible tumor growth were used for further studies. For the administration of purine prodrug, mice were administered MeP-dR or F-araAMP by IP injection.
Four to five nude (nu/nu) mice per group were inoculated with wild type murine breast carcinoma cells (16/C cell line), or PNP transduced 16/C cells. Mice with established tumors (approximately 100 mm^3) were treated with MeP-dR (100 mg/kg/d IP×3 d) or F-araAMP (100 mg/kg/IP 3 id×3 d).

16/C-PNP cells = assay: 16/C-PNP tumors in athymic nude mice; conditions: 100 mg/kg IP 3 id × 3 d; monophosphate
wild-type 16/C tumors = assay: Wild-type 16/C tumors in B6C3F1 mice; assay type: in vivo
Method: as §1
Six mice (B6C3F1) per group with established wild type 16/C tumors were treated with an aqueous control solution, MeP-dR (100 mg/kg IP qd×3d) or 2-fluoro-arabinofuranosyladenine monophosphate (F-araAMP) (100 mg/kg IP, […]). The wild type tumors grew rapidly in the presence or absence of either of the prodrugs. […] (Table III, Wild-type 16/C treatment).

PNP transduced tumors = assay type: in vivo; conditions: for Anti-tumor effect on PNP transduced tumors in mice: mouse, in vivo
D54 glioma tumors = assay: D54 tumors of mixed wild-type and transduced cells (80 to 20); conditions: in vivo
[2] = literature; cited from earlier work
[3] = test system: tumor cells transduced with the E. coli PNP; assay: Killing of PNP-transduced tumor cells in vitro by other prodrugs; assay type: cell-based
Text: In addition to MeP-dR, two other prodrugs suitable for E. coli PNP activation in tumor cells can be applied to the methodology of the present invention. These prodrugs are F-araA and 2-F-2′deoxyadenosine. […] As desired, this dose had no effect on control untransduced, tumor cells.

[4] = IP for three days, MeP-dR 100, F-araAMP 500 mg/kg/day
[5] = substrate 100 μM, 0.1 unit/ml enzyme, 25° C., 1 hour, stopped by boiling
[6] = 25° C., 1 hour, stopped by boiling
[7] = 100 μM in the presence of 1 mM deoxycytidine

E. coli PNP, sequence (P0ABP8 2-239): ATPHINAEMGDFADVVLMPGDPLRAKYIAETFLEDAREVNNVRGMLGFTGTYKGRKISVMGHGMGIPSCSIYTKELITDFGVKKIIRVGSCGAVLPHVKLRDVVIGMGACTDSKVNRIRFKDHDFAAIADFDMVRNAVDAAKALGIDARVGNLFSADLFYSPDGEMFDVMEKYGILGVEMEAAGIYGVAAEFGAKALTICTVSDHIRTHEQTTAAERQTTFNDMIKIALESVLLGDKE

Nc1ncnc2c1ncn2[C@H]1CC[C@@H](CO)O1 [2′,3′-dideoxy adenosine, 2′,3′-dideoxyadenosine]
Substrate quality for bacterial (E. coli) PNP (E. coli PNP): poor substrates
Substrate quality for mammalian (human) PNP (human PNP; in words): poor substrates

Nc1nc(F)nc2c1ncn2[C@@H]1O[C@H](COP(=O)(O)O)[C@@H](O)[C@@H]1O [F-araAMP, 2-fluoro-arabinofuranosyladenine monophosphate, reference compound]
Activity against D54 glioma tumors expressing the E. coli PNP gene (D54-PNP tumors): good activity
Complete Regressions/Total (16/C-PNP tumors; [4]): 0/6
Day delay (Treated-control) (16/C-PNP tumors; [4]): 3.3 days
Nonspecific Deaths/Total (16/C-PNP tumors; [4]): 0/6
Delay in time for three tumor doublings, in words (16/C-PNP tumors; p<0.01): statistically significant delay
Days for tumor to double 3 times mean/SD (16/C-PNP tumors; tumors that completely regressed not included): 12.1 ± 1.6 days
Effect on growth of wild-type 16/C tumors [1]: only a small effect on tumor growth
Effect of F-araAMP on growth of 16/C tumors expressing E. coli PNP (16/C-PNP cells): growth delay for at least ten days; also recorded: significantly inhibited the growth
Complete Regressions/Total (wild-type 16/C tumors; [4]): 0/6
Day delay (Treated-control) (wild-type 16/C tumors; [4]): 2.7 days
Nonspecific Deaths/Total (wild-type 16/C tumors; [4]): 0/6
Delay in tumor growth, in words (wild-type 16/C tumors; wild type 16/C): no statistically significant delay in tumor growth
Anti-tumor effect on PNP transduced tumors in mice (PNP transduced tumors): in vivo regression
Activity against tumors of wild-type and transduced cells at 80 to 20 (D54 glioma tumors): less active

Nc1nc(F)nc2c1ncn2[C@@H]1O[C@H](CO)[C@@H](O)[C@H]1F [2-F-2′-F-2′-deoxyadenosine]
Percent of substrate cleaved by E. coli PNP, 100 μM (E. coli PNP): 0(86) Percent
Percent of substrate cleaved by E. coli PNP, 1 mM (E. coli PNP): 0(21) Percent
Substrate quality for bacterial (E. coli) PNP (E. coli PNP): poor substrates

xylosyl methylpurine [xylosylmethylpurine]
Percent of substrate cleaved by E. coli PNP, 100 μM (E. coli PNP): 0(86) Percent
Percent of substrate cleaved by E. coli PNP, 1 mM (E. coli PNP): 0(21) Percent
Substrate quality for bacterial (E. coli) PNP (E. coli PNP): poor substrates
Substrate quality for mammalian (human) PNP (human PNP; in words): poor substrates
Percent of substrate cleaved by Human PNP, 100 μM (human PNP; [5]): 0(88) Percent and 0(86) Percent
Percent of substrate cleaved by Human PNP, 1 mM (human PNP; [6]): 0(50) Percent and 0(47) Percent

NC(=O)[C@H]1O[C@@H](n2cnc3c(N)ncnc32)[C@H](O)[C@@H]1O [5′-carboxamide of adenosine]
Substrate quality for bacterial (E. coli) PNP (E. coli PNP): poor substrates
Percent of substrate cleaved by Human PNP, 100 μM (human PNP): 0(81) Percent and 0(82) Percent
Substrate quality for mammalian (human) PNP (human PNP): poor substrates

Nc1cc(Cl)c2ncn([C@@H]3O[C@H](CO)[C@@H](O)[C@H]3O)c2n1 [1-deaza-2-amino-6-Cl-purine-riboside, 2-amino-6-chloro-1-deazapurine riboside]
Toxicity of prodrug relative to its purine analog [2]: much less toxic than their respective purine analogs
Percent of substrate cleaved by E. coli PNP, 100 μM (E. coli PNP): 62(87)16(23) Percent and 41(86)15(21) Percent
Percent of substrate cleaved by E. coli PNP, 1 mM (E. coli PNP): 62(87)16(23) Percent and 41(86)15(21) Percent
Substrate quality for bacterial (E. coli) PNP (E. coli PNP): good substrates
Substrate quality for mammalian (human) PNP (human PNP; in words): poor substrates
Percent of substrate cleaved by Human PNP, 100 μM (human PNP; [5]): 0(88) Percent and 0(86) Percent
Percent of substrate cleaved by Human PNP, 1 mM (human PNP; [6]): 0(52) Percent and 0(47) Percent

Nc1cc2ncn(C3O[C@H](CO)[C@@H](O)[C@H]3O)c2c(=O)[nH]1 (stereo partly drawn) [7-ribosyl-3-deazaguanine]
Toxicity of prodrug relative to its purine analog [2]: much less toxic than their respective purine analogs
Substrate quality for bacterial (E. coli) PNP (E. coli PNP): good substrates
Substrate quality for mammalian (human) PNP (human PNP; in words): poor substrates

OC[C@H]1OC(n2cnc3ncnc(S)c32)[C@H](O)[C@@H]1O (stereo partly drawn) [7-ribosyl-6-mercaptopurine]
Substrate quality for mammalian (human) PNP (human PNP; in words): poor substrates

NC[C@H]1O[C@@H](n2cnc3c(N)ncnc32)[C@H](O)[C@@H]1O [5′-amino-5′-deoxyadenosine]
Substrate quality for bacterial (E. coli) PNP (E. coli PNP): moderate substrates; also recorded: poorly cleaved
Substrate quality for mammalian (human) PNP (human PNP; in words): not cleaved
Substrate quality for mammalian (human) PNP (human PNP; in words, listed as 50-amino-50-deoxyadenosine): poor substrates

Nc1nc(F)nc2c1ncn2[C@H]1C[C@H](O)[C@@H](CO)O1 [F-dAdo, 2-fluoro-2′-deoxyadenosine]
Activity against D54 glioma tumors expressing the E. coli PNP gene (D54-PNP tumors): good activity
Tolerability in mice (PNP transduced tumors; doses similar to MeP-dR): without toxicity
Anti-tumor effect on PNP transduced tumors in mice (PNP transduced tumors): strong anti-tumor effects
Killing of PNP-transduced tumor cells in vitro [3]: high level killing
Effect on control untransduced tumor cells [3, 7]: no effect
Killing when as few as 1% of tumor cells express the gene [3, 7]: kills cells transduced with the E. coli PNP
Substrate quality for bacterial (E. coli) PNP (E. coli PNP): good substrates
Activity against tumors of wild-type and transduced cells at 80 to 20 (D54 glioma tumors): less active
Substrate quality for mammalian (human) PNP (human PNP; in words): poor substrates

CC1(C)OC2C(C(N)=O)OC(n3cnc4c(N)ncnc43)C2O1 (stereo not drawn) [isopropylidine of the 5′-carboxamide of adenosine]
Substrate quality for bacterial (E. coli) PNP (E. coli PNP): poor substrates
Percent of substrate cleaved by Human PNP, 100 μM (human PNP): 0(81) Percent and 0(82) Percent
Substrate quality for mammalian (human) PNP (human PNP): poor substrates

C[C@H]1O[C@@H](n2cnc3c(N)nc(F)nc32)[C@H](O)[C@@H]1O [2-F-5′-deoxyadenosine, 2-fluoro-5′-deoxyadenosine]
Substrate quality for bacterial (E. coli) PNP (E. coli PNP): good substrates
Substrate quality for mammalian (human) PNP (human PNP; in words): poor substrates

Nc1ncnc2c1ncn2[C@H]1O[C@H](CO)[C@@H](O)[C@H]1O [α-adenosine]
Substrate quality for bacterial (E. coli) PNP (E. coli PNP): poorly cleaved
Percent of substrate cleaved by Human PNP, 100 μM (human PNP; # line: assay terminated by filtering and not by boiling): 0(87**) Percent
Substrate quality for mammalian (human) PNP (human PNP; in words): poor substrates; also recorded: not cleaved
Percent of substrate cleaved by Human PNP, 100 μM (human PNP; [5]): 0(88) Percent and 0(86) Percent
Percent of substrate cleaved by Human PNP, 1 mM (human PNP; [6]): 0(50) Percent and 0(47) Percent

O=c1[nH]cnc2ncn(C3O[C@H](CO)[C@@H](O)[C@H]3O)c12 (stereo partly drawn) [7-ribosyl-hypoxanthine, 7-ribosylhypoxanthine]
Substrate quality for bacterial (E. coli) PNP (E. coli PNP): moderate to good substrates
Substrate quality for mammalian (human) PNP (human PNP; in words): moderate to good substrates

Nc1ncnc2c1ncn2[C@@H]1O[C@H](CO)C[C@H]1O [3′-deoxy adenosine, 3′-deoxyadenosine]
Substrate quality for bacterial (E. coli) PNP (E. coli PNP): poor substrates
Substrate quality for mammalian (human) PNP (human PNP; in words): poor substrates

Nc1ncnc2c1ncn2C1OC(CO)C(O)C1O (stereo not drawn) [xylosyl adenine]
Percent of substrate cleaved by Human PNP, 100 μM (human PNP; [5]): 0(81) Percent and 0(82) Percent
